# Experimental data reported in patent publication US8148370B2, “Polysubstituted derivatives of 2-aryl-6-phenyl-imidazo[1,2-a]pyridines, and preparation and therapeutic use thereof” (Sanofi-Aventis, priority 2008, dated 2012).
# Tests used:
# mouse Nurr1 receptor = molecular target: T1, mouse Nurr1 receptor (Mus musculus, UniProt Q06219); experiment: Evaluation of the in vitro activity on N2A cells (NBRE-luciferase reporter); format: cell-based; settings: N2A (Neuro-2A) cells stably transfected with 8NBRE-luciferase; products incubated 24 hours; luminescence
# T1 construct: endogenously expressing the mouse Nurr1 receptor; host or cells: Neuro-2A (N2A) mouse neuroblastoma cells stably transfected with 8NBRE-luciferase
# T1 sequence (Q06219 whole entry): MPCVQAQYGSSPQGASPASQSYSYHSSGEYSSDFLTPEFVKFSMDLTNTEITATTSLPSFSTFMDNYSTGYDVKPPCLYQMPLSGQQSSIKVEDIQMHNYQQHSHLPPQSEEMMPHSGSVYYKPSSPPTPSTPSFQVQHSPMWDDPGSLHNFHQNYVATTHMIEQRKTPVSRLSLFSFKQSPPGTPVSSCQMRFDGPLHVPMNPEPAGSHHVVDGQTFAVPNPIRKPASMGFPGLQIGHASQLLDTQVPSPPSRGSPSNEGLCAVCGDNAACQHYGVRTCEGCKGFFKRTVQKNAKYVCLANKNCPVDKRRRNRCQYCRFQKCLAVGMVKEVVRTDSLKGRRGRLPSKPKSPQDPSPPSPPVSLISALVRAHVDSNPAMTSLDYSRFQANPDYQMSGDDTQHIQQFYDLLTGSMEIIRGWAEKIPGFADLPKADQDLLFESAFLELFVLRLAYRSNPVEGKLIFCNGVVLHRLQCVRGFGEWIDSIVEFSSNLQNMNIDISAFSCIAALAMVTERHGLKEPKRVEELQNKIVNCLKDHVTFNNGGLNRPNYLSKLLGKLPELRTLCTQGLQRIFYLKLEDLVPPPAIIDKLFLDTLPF
# Description: The compounds according to the invention have formed the subject of pharmacological assays which make it possible to determine their modulatory effect on NOT. Evaluation of the In Vitro Activity on N2A Cells The activity of the compounds according to the invention was evaluated on a cell line (N2A) endogenously expressing the mouse Nurr1 receptor and stably transfected with the NOT binding response element (NBRE) coupled to the luciferase reporter gene. The EC50 values are between 0.01 and 10 μM. The assays were carried out according to the procedure described below. The Neuro-2A cell line comes from a standard commercial source (ATCC). The Neuro-2A clone was obtained, from a spontaneous tumour originating from an A albino mouse strain, by R. J Klebe et al. This Neuro-2A line is subsequently stably transfected with 8NBRE-luciferase. The N2A-8NBRE cells are cultured until confluence in 75 cm^2 culture flasks containing DMEM supplemented with 10% of foetal calf serum, 4.5 g/l of glucose and 0.4 mg/ml of geneticin. After a week of culture, the cells are recovered with 0.25% trypsin for 30 seconds and then resuspended in DMEM without phenol red, containing 4.5 g/l of glucose and 10% of Hyclone delipidized serum, and deposited into transparent-bottom 96-well white plates. The cells are deposited at a rate of 60 000 per well in 75 μl for 24 hours before the addition of the products. The products are applied in 25 μl and incubated for a further 24 hours. On the day of the measurement, an equivalent volume (100 μl) of Steadylite is added to each well and then left for a period of 30 minutes in order to obtain complete cell lysis and maximum signal production. The plates are subsequently measured in a luminescence counter for microplates after having been sealed with an adhesive film. The products are prepared in the form of a stock solution at 10^−2M and then diluted in 100% of DMSO. Each product concentration is prediluted in culture medium before incubation with the cells, thus containing 0.625% final concentration of DMSO. […] It is thus apparent that the compounds according to the invention have a modulatory effect on NOT.
SMILES,EC50 (mouse Nurr1 receptor) [nM],melting point [°C]
"CC(O)c1cccc(-c2ccc3nc(-c4ccc(Cl)cc4)cn3c2)c1F (centres unmarked) [Compound 2, 1-{3-[2-(4-Chlorophenyl)imidazo[1,2-a]pyridin-6-yl]-2-fluorophenyl}ethanol]",–,193 to 195
"OCc1c(F)ccc(-c2ccc3nc(-c4ccc(Cl)cc4)cn3c2)c1F [Compound 3, {3-[2-(4-Chlorophenyl)imidazo[1,2-a]pyridin-6-yl]-2,6-difluorophenyl}methanol]",0.5,214 to 216
"OC1CCCc2ccc(-c3ccc4nc(-c5ccc(Cl)cc5)cn4c3)cc21 (centres unmarked) [Compound 8, 7-[2-(4-Chlorophenyl)imidazo[1,2-a]pyridin-6-yl]-1,2,3,4-tetrahydronaphth-1-ol]",42,–
"OCc1cc(-c2ccc3nc(-c4ccc(Cl)cc4)cn3c2)ccc1F [Compound 11, {5-[2-(4-Chlorophenyl)imidazo[1,2-a]pyridin-6-yl]-2-fluorophenyl}methanol]",7.5,–
"COc1cccc(-c2cn3cc(-c4ccc(CO)c(F)c4)ccc3n2)c1 [Compound 17, {2-Fluoro-4-[2-(3-methoxyphenyl)imidazo[1,2-a]pyridin-6-yl]phenyl}methanol]",93,–

# Further lines, results first:
EC50 (mouse Nurr1 receptor) [nM],melting point [°C],SMILES
0.1,–,"CC(O)c1ccc(F)c(-c2ccc3nc(-c4ccc(Cl)cc4)cn3c2)c1 (single isomer, unassigned; (+)) [Compound 29, (+)-1-{3-[2-(4-Chlorophenyl)imidazo[1,2-a]pyridin-6-yl]-4-fluorophenyl}ethanol]"
25,–,"COc1cccc(-c2cn3cc(-c4cc(C(C)(C)O)ccc4F)ccc3n2)c1 [Compound 33, 2-{4-Fluoro-3-[2-(3-methoxyphenyl)imidazo[1,2-a]pyridin-6-yl]phenyl}propan-2-ol]"
74,–,"COCc1c(F)ccc(-c2ccc3nc(-c4ccc(C)cc4)cn3c2)c1F [Compound 37, 6-(2,4-Difluoro-3-methoxymethylphenyl)-2-(p-tolyl)imidazo[1,2-a]pyridine]"
211,–,"O=[N+]([O-])c1ccc(-c2cn3cc(-c4cccc(F)c4CO)ccc3n2)cc1 [Compound 38, {2-Fluoro-6-[2-(4-nitrophenyl)imidazo[1,2-a]pyridin-6-yl]phenyl}methanol]"
1,–,"OCc1c(F)ccc(-c2ccc3nc(-c4cccc(Br)c4)cn3c2)c1F [Compound 42, {3-[2-(3-Bromophenyl)imidazo[1,2-a]pyridin-6-yl]-2,6-difluorophenyl}methanol]"
